# Assay results: article PMC9851200, “Multiparameter phenotypic screening for endogenous TFEB and TFE3 translocation identifies novel chemical series modulating lysosome function” (Autophagy, 2022)
# Key:
# Type in all cases: binding
# [1] = molecular target: kinases (KINOMEscan panel) (Homo sapiens, UniProt Q07002); settings: kinase CDK18; NEW KINOMEscan
# [2] = molecular target: kinases (KINOMEscan panel) (Homo sapiens, UniProt Q9NQU5); settings: PAK6; NEW KINOMEscan
# [3] = molecular target: kinases (KINOMEscan panel) (Homo sapiens, UniProt Q9P1W9); settings: PIM2; NEW KINOMEscan
# [4] = molecular target: kinases (KINOMEscan panel) (Homo sapiens, UniProt P00533, DEL752-759); settings: EGFR(S752-I759del); NEW KINOMEscan
# [5] = molecular target: kinases (KINOMEscan panel) (Homo sapiens, UniProt Q00535); settings: NEW KINOMEscan
# [6] = molecular target: T1, kinases (KINOMEscan panel) (Homo sapiens, UniProt P57078); settings: RIPK4; NEW KINOMEscan
# T1 sequence (P57078 1-832): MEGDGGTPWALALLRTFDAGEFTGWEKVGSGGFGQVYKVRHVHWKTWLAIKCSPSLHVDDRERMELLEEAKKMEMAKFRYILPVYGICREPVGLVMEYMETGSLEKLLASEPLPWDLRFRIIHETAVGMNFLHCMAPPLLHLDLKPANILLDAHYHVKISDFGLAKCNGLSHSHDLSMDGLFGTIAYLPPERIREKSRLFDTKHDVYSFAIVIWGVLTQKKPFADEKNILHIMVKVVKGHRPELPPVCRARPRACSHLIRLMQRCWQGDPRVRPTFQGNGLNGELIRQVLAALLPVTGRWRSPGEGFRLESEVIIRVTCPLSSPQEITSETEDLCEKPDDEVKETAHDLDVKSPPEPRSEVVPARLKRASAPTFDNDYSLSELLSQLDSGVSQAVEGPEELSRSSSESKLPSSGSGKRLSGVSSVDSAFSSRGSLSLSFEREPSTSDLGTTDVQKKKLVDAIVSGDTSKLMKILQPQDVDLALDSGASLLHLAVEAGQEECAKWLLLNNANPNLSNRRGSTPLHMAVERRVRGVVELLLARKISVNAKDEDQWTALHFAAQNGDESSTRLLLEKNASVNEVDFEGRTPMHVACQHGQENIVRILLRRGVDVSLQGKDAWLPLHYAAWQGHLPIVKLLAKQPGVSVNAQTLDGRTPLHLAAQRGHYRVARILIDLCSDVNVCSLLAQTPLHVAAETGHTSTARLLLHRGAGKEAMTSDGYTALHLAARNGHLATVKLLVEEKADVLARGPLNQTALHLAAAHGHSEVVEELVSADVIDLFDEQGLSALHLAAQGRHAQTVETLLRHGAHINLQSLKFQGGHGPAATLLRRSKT
# [7] = molecular target: kinases (KINOMEscan panel) (Homo sapiens, UniProt P53350); settings: PLK1; NEW KINOMEscan
# [8] = molecular target: T2, kinases (KINOMEscan panel) (Homo sapiens, UniProt Q99640); settings: kinase PKMYT1; NEW KINOMEscan
# T2 sequence (Q99640 1-499): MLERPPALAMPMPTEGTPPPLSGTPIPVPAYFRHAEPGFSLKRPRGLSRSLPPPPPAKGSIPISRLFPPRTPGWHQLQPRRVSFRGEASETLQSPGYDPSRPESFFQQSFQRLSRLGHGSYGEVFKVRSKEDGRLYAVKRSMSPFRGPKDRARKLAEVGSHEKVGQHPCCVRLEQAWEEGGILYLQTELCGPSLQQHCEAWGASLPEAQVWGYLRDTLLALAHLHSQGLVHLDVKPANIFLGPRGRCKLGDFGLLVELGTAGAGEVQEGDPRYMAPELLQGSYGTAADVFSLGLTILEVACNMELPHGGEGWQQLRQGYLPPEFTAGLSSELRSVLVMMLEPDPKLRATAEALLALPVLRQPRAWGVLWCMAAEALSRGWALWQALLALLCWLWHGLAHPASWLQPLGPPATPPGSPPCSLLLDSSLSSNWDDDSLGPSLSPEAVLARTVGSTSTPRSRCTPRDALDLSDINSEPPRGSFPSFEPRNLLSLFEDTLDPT
# [9] = molecular target: T3, kinases (KINOMEscan panel) (Homo sapiens, UniProt P30530); settings: AXL; NEW KINOMEscan
# T3 sequence (P30530 26-894): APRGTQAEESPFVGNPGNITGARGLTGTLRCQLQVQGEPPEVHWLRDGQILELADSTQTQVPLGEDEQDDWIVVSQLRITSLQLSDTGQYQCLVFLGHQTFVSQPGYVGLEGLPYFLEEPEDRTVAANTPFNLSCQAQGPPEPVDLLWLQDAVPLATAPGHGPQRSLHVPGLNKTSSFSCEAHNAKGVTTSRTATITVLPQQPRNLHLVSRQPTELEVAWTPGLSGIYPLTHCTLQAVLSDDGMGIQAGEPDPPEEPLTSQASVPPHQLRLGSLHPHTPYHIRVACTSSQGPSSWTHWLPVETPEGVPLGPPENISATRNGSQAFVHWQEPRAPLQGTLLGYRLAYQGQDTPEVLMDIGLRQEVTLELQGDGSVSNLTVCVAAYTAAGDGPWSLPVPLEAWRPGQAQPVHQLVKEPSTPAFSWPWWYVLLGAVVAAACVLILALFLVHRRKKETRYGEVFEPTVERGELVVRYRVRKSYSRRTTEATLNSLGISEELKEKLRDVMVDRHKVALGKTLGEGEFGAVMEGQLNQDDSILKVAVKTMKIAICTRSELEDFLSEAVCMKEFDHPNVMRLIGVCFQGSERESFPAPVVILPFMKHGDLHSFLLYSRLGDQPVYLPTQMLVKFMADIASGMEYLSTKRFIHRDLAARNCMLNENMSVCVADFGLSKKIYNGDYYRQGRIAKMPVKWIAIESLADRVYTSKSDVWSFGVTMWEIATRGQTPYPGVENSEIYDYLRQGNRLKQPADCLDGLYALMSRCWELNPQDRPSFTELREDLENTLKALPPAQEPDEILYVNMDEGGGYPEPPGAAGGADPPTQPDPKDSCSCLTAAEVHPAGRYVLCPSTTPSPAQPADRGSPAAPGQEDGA
# [10] = molecular target: kinases (KINOMEscan panel) (Homo sapiens, UniProt O43293); settings: DAPK3; NEW KINOMEscan
# [11] = molecular target: kinases (KINOMEscan panel) (Homo sapiens, UniProt P50750); settings: kinase CDK9; NEW KINOMEscan
# [12] = molecular target: kinases (KINOMEscan panel) (Homo sapiens, UniProt Q99755); settings: NEW KINOMEscan
# kinases (KINOMEscan panel) (Homo sapiens, UniProt Q99755), sequence (Q99755 whole entry): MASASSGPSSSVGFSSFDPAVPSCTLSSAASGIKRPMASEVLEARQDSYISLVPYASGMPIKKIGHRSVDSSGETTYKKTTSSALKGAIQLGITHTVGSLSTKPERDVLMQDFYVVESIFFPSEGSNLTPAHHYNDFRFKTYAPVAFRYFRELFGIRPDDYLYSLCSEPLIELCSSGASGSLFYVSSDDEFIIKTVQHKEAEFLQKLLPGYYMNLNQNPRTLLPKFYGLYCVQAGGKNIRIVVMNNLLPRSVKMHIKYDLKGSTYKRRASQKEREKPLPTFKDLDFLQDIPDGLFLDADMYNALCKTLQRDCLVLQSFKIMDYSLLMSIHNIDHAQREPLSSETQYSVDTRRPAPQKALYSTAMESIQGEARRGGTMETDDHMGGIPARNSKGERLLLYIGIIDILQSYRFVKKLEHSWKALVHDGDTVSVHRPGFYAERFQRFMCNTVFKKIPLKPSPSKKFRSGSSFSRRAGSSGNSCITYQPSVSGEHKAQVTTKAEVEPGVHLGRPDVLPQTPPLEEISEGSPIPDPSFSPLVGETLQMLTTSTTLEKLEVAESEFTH
# kinases (KINOMEscan panel) (Homo sapiens, UniProt Q07002), sequence (Q07002 whole entry): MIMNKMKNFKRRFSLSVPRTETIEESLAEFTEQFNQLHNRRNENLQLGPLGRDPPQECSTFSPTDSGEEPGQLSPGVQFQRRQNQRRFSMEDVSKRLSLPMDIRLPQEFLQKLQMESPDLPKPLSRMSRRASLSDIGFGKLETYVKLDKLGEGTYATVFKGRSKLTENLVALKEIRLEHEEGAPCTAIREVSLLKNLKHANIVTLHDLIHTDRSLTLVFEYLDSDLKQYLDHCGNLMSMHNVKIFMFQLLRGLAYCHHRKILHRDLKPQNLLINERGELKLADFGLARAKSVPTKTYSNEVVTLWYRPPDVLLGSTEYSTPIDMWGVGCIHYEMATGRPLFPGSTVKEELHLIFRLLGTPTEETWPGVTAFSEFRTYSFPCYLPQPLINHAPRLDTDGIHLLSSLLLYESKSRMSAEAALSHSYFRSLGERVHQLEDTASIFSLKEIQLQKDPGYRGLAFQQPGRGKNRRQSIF
# kinases (KINOMEscan panel) (Homo sapiens, UniProt O43293), sequence (O43293 whole entry): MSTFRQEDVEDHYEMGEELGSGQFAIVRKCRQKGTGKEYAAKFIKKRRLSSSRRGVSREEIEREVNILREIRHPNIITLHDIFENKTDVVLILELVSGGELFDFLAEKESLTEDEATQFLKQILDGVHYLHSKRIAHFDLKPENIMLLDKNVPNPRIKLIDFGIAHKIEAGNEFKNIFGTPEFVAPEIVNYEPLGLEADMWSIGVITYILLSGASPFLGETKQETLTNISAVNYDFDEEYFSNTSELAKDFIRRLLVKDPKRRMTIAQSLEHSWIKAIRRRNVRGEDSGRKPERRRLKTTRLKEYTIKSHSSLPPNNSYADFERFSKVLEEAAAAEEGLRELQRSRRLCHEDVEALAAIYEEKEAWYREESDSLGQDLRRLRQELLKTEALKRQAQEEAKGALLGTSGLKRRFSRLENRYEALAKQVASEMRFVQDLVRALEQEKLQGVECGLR
# kinases (KINOMEscan panel) (Homo sapiens, UniProt P00533, DEL752-759), sequence (P00533 with tags, fused parts or gaps DEL752-759): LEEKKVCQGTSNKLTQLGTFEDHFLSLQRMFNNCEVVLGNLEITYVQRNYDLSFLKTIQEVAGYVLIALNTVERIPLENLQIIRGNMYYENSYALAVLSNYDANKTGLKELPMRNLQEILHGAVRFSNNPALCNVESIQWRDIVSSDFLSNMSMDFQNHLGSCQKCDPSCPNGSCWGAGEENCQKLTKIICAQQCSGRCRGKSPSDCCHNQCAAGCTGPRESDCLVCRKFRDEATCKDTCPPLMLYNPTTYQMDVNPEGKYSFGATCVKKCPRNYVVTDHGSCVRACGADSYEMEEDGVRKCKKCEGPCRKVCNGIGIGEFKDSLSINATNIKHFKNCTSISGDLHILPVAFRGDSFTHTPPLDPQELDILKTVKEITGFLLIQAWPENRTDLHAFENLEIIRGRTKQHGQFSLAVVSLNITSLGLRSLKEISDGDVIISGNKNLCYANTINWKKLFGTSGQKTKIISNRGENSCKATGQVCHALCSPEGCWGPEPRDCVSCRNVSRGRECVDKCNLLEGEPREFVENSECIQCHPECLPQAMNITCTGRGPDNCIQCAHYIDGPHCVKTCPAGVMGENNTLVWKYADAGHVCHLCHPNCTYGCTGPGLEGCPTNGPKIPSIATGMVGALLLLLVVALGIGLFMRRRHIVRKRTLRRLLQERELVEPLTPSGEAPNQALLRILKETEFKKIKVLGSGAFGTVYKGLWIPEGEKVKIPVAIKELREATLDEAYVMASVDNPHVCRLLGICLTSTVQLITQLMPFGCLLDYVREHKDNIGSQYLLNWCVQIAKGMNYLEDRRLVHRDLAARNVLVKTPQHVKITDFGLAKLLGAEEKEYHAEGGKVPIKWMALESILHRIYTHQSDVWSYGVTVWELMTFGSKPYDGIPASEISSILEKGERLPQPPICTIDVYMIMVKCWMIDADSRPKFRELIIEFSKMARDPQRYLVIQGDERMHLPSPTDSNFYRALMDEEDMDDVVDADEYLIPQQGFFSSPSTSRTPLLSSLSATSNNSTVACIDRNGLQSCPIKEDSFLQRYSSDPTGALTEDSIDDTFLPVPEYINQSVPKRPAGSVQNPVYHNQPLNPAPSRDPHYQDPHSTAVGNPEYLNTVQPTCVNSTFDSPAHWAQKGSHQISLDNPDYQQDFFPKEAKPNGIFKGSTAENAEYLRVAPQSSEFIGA
# kinases (KINOMEscan panel) (Homo sapiens, UniProt Q9NQU5), sequence (Q9NQU5 whole entry): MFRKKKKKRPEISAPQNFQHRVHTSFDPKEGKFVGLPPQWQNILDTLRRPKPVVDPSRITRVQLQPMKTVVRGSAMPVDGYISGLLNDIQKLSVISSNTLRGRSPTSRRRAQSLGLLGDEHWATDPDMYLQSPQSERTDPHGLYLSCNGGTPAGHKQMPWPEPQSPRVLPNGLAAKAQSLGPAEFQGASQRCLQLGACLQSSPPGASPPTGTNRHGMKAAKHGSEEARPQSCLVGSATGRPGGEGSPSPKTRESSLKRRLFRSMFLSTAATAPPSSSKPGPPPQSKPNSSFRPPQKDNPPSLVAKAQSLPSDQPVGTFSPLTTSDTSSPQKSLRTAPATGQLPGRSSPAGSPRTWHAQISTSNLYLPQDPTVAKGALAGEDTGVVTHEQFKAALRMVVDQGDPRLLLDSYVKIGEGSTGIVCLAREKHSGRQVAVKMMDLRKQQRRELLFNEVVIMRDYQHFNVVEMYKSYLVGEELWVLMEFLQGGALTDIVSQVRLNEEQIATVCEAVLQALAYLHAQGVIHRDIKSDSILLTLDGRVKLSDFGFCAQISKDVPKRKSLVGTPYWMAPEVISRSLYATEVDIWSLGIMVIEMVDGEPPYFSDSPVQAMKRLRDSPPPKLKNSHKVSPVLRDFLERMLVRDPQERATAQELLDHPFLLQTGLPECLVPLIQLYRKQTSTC
# kinases (KINOMEscan panel) (Homo sapiens, UniProt Q00535), sequence (Q00535 whole entry): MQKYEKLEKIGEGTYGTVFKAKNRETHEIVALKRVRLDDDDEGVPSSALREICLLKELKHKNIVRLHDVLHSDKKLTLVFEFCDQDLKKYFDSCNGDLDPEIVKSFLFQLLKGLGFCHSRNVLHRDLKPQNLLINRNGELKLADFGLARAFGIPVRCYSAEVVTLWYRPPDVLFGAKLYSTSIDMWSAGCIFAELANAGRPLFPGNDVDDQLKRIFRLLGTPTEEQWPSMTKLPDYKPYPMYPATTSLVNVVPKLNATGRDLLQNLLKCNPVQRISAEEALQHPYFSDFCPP
# kinases (KINOMEscan panel) (Homo sapiens, UniProt Q9P1W9), sequence (Q9P1W9 whole entry): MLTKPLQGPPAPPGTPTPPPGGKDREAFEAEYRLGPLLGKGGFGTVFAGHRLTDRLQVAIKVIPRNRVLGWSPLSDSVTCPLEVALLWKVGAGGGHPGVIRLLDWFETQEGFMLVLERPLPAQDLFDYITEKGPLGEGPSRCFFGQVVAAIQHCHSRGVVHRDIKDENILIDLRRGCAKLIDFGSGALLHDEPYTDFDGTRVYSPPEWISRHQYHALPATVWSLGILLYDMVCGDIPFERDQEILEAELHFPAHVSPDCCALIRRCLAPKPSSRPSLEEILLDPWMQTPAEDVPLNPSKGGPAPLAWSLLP
# kinases (KINOMEscan panel) (Homo sapiens, UniProt P50750), sequence (P50750 whole entry): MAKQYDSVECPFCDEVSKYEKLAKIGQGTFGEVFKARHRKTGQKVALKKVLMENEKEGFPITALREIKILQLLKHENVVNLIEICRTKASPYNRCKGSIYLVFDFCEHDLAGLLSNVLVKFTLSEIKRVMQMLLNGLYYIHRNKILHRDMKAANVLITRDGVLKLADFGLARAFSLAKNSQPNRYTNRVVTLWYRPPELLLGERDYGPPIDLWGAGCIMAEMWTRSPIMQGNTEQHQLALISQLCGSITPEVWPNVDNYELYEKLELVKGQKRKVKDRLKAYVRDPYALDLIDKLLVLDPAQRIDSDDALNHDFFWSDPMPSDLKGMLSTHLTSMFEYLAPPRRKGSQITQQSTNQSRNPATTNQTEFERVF
# kinases (KINOMEscan panel) (Homo sapiens, UniProt P53350), sequence (P53350 whole entry): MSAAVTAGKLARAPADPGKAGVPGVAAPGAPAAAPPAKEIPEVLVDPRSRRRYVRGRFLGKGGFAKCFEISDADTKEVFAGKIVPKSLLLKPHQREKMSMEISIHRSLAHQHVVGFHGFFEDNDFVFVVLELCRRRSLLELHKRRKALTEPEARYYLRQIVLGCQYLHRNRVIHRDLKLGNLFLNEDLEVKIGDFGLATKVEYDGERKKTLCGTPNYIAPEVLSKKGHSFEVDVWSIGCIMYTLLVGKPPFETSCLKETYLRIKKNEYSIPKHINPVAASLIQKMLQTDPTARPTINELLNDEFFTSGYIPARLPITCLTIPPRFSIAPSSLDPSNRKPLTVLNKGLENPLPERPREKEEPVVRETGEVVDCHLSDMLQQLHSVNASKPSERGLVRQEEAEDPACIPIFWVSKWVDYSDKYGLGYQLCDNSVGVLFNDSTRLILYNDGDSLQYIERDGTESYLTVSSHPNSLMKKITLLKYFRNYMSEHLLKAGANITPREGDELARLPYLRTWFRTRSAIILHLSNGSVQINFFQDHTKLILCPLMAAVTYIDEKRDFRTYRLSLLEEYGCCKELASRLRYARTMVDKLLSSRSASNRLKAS
SMILES,KINOMEscan CDK18 [1],KINOMEscan PAK6 [2],KINOMEscan PIM2 [3],KINOMEscan EGFR(S752-I759del) [4],KINOMEscan CDK5 [5],KINOMEscan RIPK4 [6],KINOMEscan PLK1 [7],KINOMEscan PKMYT1 [8],KINOMEscan AXL [9],KINOMEscan DAPK3 [10],KINOMEscan CDK9 [11],KINOMEscan PIP5K1A [12]
Cc1cccc(-c2nc(N(C)c3ccc4ncsc4c3)c3ccccc3n2)n1 [NK-161],0,0,18,0,19,0,4,0,0,0,4,52
Cc1cccc(-c2nc(Nc3ccc4nn(C)cc4c3)c3ccccc3n2)n1 [NK167],0,0,2,0,14,0,0,0,0,0,8,49
